In PubChem BioAssay AID248 (DTP/NCI, 2004):
Where “and” joins values, the source holds several entries; their conditions need not be identical. Identical values can stand only once. Toxic doses and inconclusive results are not listed. Cut-off read from the data, not from the text of the source: active = T/C of 150% or more; inactive = T/C below 125%.

Test system: L1210 leukemia ip in BDF1 mice, survival T/C
Experiment: NCI In Vivo Anticancer Drug Screen. Data for tumor model L1210 Leukemia (intraperitoneal) in B6D2F1 (BDF1) mice
Conditions: endpoint: mean survival time, higher = longer survival
In short: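 Tumor cells were implanted, animals were treated, and survival was followed. The result divides the treated measurement by the vehicle-control measurement.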

[1] = dose: 75.0 mg/kg/injection, schedule: Q01DX001 (ip), vehicle: saline
[2] = dose: 150.0 mg/kg/injection, schedule: Q01DX001 (ip), vehicle: saline
[3] = dose: 100.0 mg/kg/injection, schedule: Q01DX001 (ip), vehicle: carboxymethylcellulose (CMC)
[4] = dose: 200.0 mg/kg/injection, schedule: Q01DX001 (ip), vehicle: carboxymethylcellulose (CMC)
[5] = dose: 400.0 mg/kg/injection, schedule: Q01DX001 (ip), vehicle: carboxymethylcellulose (CMC)
[6] = dose: 100.0 mg/kg/injection, schedule: Q04DX003 (ip), vehicle: Klucel (hydroxypropylcellulose) (HPC)
[7] = dose: 200.0 mg/kg/injection, schedule: Q04DX003 (ip), vehicle: Klucel (hydroxypropylcellulose) (HPC)
[8] = dose: 400.0 mg/kg/injection, schedule: Q04DX003 (ip), vehicle: Klucel (hydroxypropylcellulose) (HPC)
[9] = dose: 6.25 mg/kg/injection, schedule: Q01DX009 (ip), vehicle: saline
[10] = dose: 12.5 mg/kg/injection, schedule: Q01DX009 (ip), vehicle: saline
[11] = dose: 100.0 mg/kg/injection, schedule: Q01DX001 (ip), vehicle: saline
[12] = dose: 200.0 mg/kg/injection, schedule: Q01DX001 (ip), vehicle: saline
[13] = dose: 100.0 mg/kg/injection, schedule: Q01DX001 (ip), vehicle: Klucel (hydroxypropylcellulose) (HPC)
[14] = dose: 50.0 mg/kg/injection, schedule: Q01DX001 (ip), vehicle: saline

Measured: T/C

CCCCCCCCCCCCCCCCCCNC(=O)NC(C)(C)C
inactive: dose: 100.0 mg/kg/injection, schedule: Q04DX002 (ip), vehicle: Klucel (hydroxypropylcellulose) (HPC) 111 % of control | dose: 200.0 mg/kg/injection, schedule: Q04DX002 (ip), vehicle: Klucel (hydroxypropylcellulose) (HPC) 100 % of control | dose: 400.0 mg/kg/injection, schedule: Q04DX002 (ip), vehicle: Klucel (hydroxypropylcellulose) (HPC) 111 % of control

O=c1[nH]nc(-c2ccc(C(F)(F)F)cc2)s1
inactive: [1] 95 % of control | dose: 75.0 mg/kg/injection, schedule: Q04DX003 (ip), vehicle: saline 93 % of control | [2] 104 % of control | dose: 150.0 mg/kg/injection, schedule: Q04DX003 (ip), vehicle: saline 98 % of control | dose: 300.0 mg/kg/injection, schedule: Q01DX001 (ip), vehicle: saline 97 % of control | dose: 300.0 mg/kg/injection, schedule: Q04DX003 (ip), vehicle: saline 98 % of control

CCOCCOCCCNCC(=O)N1CCN(C(=O)CNCCCOCCOCC)CC1
inactive: dose: 50.0 mg/kg/injection, schedule: Q01DX001 (ip), vehicle: carboxymethylcellulose (CMC) 97 % of control | [3] 98 % of control | [4] 108 % of control | [5] 103 % of control

COc1ccc(-n2cc3c(=O)nccc-3c3ccccc32)cc1OC
inactive: [1] 95 % of control | [2] 89 % of control

CCCCCCCCCCCCCCCCOc1ccc(C(=S)N2CCOCC2)cc1Cl
inactive: [6] 104 % of control | [7] 91 % of control | [8] 86 % of control

COc1ccc([I+]c2ccc(OC)cc2)cc1
inactive: dose: 0.63 mg/kg/injection, schedule: Q01DX009 (ip), vehicle: water 100 % of control | dose: 1.25 mg/kg/injection, schedule: Q01DX009 (ip), vehicle: water 101 % of control | dose: 2.5 mg/kg/injection, schedule: Q01DX009 (ip), vehicle: water 105 % of control | dose: 2.5 mg/kg/injection, schedule: Q04DX003 (ip), vehicle: water 103 % of control | dose: 3.12 mg/kg/injection, schedule: Q01DX009 (ip), vehicle: saline 103 % of control | dose: 5.0 mg/kg/injection, schedule: Q04DX003 (ip), vehicle: water 108 % of control | [9] 107 % of control | dose: 10.0 mg/kg/injection, schedule: Q04DX003 (ip), vehicle: water 101 % of control | [10] 91 % of control | dose: 50.0 mg/kg/injection, schedule: Q04DX003 (ip), vehicle: acetone 103 % of control | [11] 111 % of control | dose: 100.0 mg/kg/injection, schedule: Q04DX003 (ip), vehicle: acetone 100 % of control | [12] 109 % of control

O=C(O)c1cc2ccccc2c(Br)c1O.OC1CCCC2CCC[N-]C12.[Cu+]
inactive: dose: 4.0 mg/kg/injection, schedule: Q01DX015 (sc), vehicle: steriod suspending solution 97 % of control | dose: 16.0 mg/kg/injection, schedule: Q01DX015 (sc), vehicle: steriod suspending solution 103 % of control | dose: 32.0 mg/kg/injection, schedule: Q01DX015 (sc), vehicle: steriod suspending solution 100 % of control | dose: 50.0 mg/kg/injection, schedule: Q01DX001 (sc), vehicle: steriod suspending solution 98 % of control | dose: 100.0 mg/kg/injection, schedule: Q01DX001 (sc), vehicle: steriod suspending solution 111 % of control

N=NC(=O)c1ccccc1Nc1c(O)[nH]c2ccccc12
inactive: [3] 89 % of control | [4] 93 % of control | [5] 93 % of control

Cc1ccc(C(=O)NCCCOc2ccc([N+](=O)[O-])cc2Cl)cc1S(=O)(=O)F
inactive: dose: 100.0 mg/kg/injection, schedule: Q01DX009 (ip), vehicle: saline with Tween-80 106 % of control | dose: 100.0 mg/kg/injection, schedule: Q04DX003 (ip), vehicle: saline with Tween-80 86 % of control | dose: 200.0 mg/kg/injection, schedule: Q01DX009 (ip), vehicle: saline with Tween-80 96 % of control | dose: 200.0 mg/kg/injection, schedule: Q04DX003 (ip), vehicle: saline with Tween-80 97 % of control | dose: 400.0 mg/kg/injection, schedule: Q01DX009 (ip), vehicle: saline with Tween-80 98 % of control | dose: 400.0 mg/kg/injection, schedule: Q04DX003 (ip), vehicle: saline with Tween-80 103 % of control

CCN1C(=O)Cc2ccccc21
inactive: [13] 98 % of control | dose: 200.0 mg/kg/injection, schedule: Q01DX001 (ip), vehicle: Klucel (hydroxypropylcellulose) (HPC) 102 % of control | dose: 400.0 mg/kg/injection, schedule: Q01DX001 (ip), vehicle: Klucel (hydroxypropylcellulose) (HPC) 93 % of control

Cc1cc([N+](=O)[O-])c(Cl)cc1N
inactive: dose: 100.0 mg/kg/injection, schedule: Q04DX003 (ip), vehicle: gum acacia 93 % of control | dose: 200.0 mg/kg/injection, schedule: Q04DX003 (ip), vehicle: gum acacia 95 % of control | dose: 400.0 mg/kg/injection, schedule: Q04DX003 (ip), vehicle: gum acacia 95 % of control

C/C=C(\C)C(=O)OC1CC(C)=C2C(=O)C=C(C)C2C2OC(=O)C(C)C12 (centres undefined)
inactive: [6] 98 % of control | [7] 102 % of control | [8] 96 % of control

O=C(CCCC(=O)NNC(=S)Nc1cccc2ccccc12)NNC(=S)Nc1cccc2ccccc12
inactive: [14] 98 % of control | [11] 93 % of control | [12] 96 % of control | dose: 400.0 mg/kg/injection, schedule: Q01DX001 (ip), vehicle: saline 96 % of control

CC(C)NC(=O)CN=NNc1nc[nH]c1C(N)=O
inactive: dose: 25.0 mg/kg/injection, schedule: Q01DX001 (ip), vehicle: Klucel (hydroxypropylcellulose) (HPC) 95 % of control | dose: 25.0 mg/kg/injection, schedule: Q04DX003 (ip), vehicle: Klucel (hydroxypropylcellulose) (HPC) 99 % of control | dose: 50.0 mg/kg/injection, schedule: Q01DX001 (ip), vehicle: Klucel (hydroxypropylcellulose) (HPC) 100 % of control | dose: 50.0 mg/kg/injection, schedule: Q04DX003 (ip), vehicle: Klucel (hydroxypropylcellulose) (HPC) 94 % of control | [13] 97 % of control | [6] 101 % of control

CC(=O)c1c(O)cc(O)cc1-c1cc(=O)c2c(O)ccc(C(C)=O)c2o1
inactive: [3] 103 % of control | [4] 94 % of control

CCOC(=O)C(NC(C)=O)C(=O)OCC
inactive: dose: 100.0 mg/kg/injection, schedule: Q01DX009 (ip), vehicle: Klucel (hydroxypropylcellulose) (HPC) 103 % of control | [6] 107 % of control | dose: 200.0 mg/kg/injection, schedule: Q01DX009 (ip), vehicle: Klucel (hydroxypropylcellulose) (HPC) 105 % of control | [7] 107 % of control | dose: 400.0 mg/kg/injection, schedule: Q01DX009 (ip), vehicle: Klucel (hydroxypropylcellulose) (HPC) 107 % of control | [8] 106 % of control

CC(C)=CC[P+](c1ccccc1)(c1ccccc1)c1ccccc1
inactive: dose: 3.13 mg/kg/injection, schedule: Q01DX009 (ip), vehicle: saline 111 % of control | [9] 106 % of control | [10] 100 % of control and 106 % of control | dose: 25.0 mg/kg/injection, schedule: Q01DX001 (ip), vehicle: saline 102 % of control | dose: 25.0 mg/kg/injection, schedule: Q01DX009 (ip), vehicle: saline 98 % of control | [14] 90 % of control | dose: 50.0 mg/kg/injection, schedule: Q01DX009 (ip), vehicle: saline 98 % of control and 90 % of control
